Where a name gives a salt, the structure may show the parent alone. Read-outs that look alike come from different tables or passages of the source.

The assay has as its system PAM 212 keratinocytes. Kind of assay: PAM 212 keratinocyte growth inhibition assay (photobiological activity; Toxicity, Table I). Type of assay: cell-based. Particulars: Mus musculus, PAM212, light or radiation study. The text has this:
Psoriasis, mycosis fungolides, eczema, scleroderma, cancer, and similar proliferative diseases are often characterized by abnormal cell growth regulation. Application of PUVA therapy to correct proliferative disorders on the skin or internally, especially psoriasis, is one clinical expression of photochemotherapy. The use of the assay described in Example 16 is based on the observation that phototherapeutics are extremely potent inhibitors of growth factor binding in mammalian cells including humans and this inhibition arrests the proliferative disorder. This assay was performed in the cell culture laboratory. For a discussion of cell growth assays see, e.g:, J. Laskin et al., Cancer Research, vol. 39, pp. 383-390 (1979) and E. Yurkow and J. Laskin, Cancer Chemotherapy and Pharmacology, vol. 27, pp. 315-319, (1991). Inhibition of cell growth is dependent on dose ol the phototherapeutic and on the quanta of light in the 320-400 nm wavelength (ultraviolet light A). It is also structure-dependent, that is, there is a direct correlation between those specific phototherapeutics currently used that are clinically active and their ability to inhibit the growth of the cells.
Representative examples of the compounds described and claimed herein were tested in this assay for biological activity and found to be potent inhibitors of cell growth. Inhibition of cell growth was rapid, dependent on concentration, and required light activation. […] A description of this assay follows.
The photobiological activity was assayed using a keratinocyte cell line grown in a monolayer culture. In this assay, PAM 212 keratinocytes were grown in Dulbecco's Modified Eagle's medium supplemented with 10% newborn calf serum in a 5% carbon dioxide incubator. Cells were inoculated into 6-well Falcon plastic culture dishes at 25,000 cells per well. After 24 hours, the medium was charged to fresh growth medium supplemented with increasing concentrations of the test compounds or the control medium. Controls and test concentrations were analyzed in triplicate.
These plates were then incubated in a 37° C. carbon dioxide incubator. […] The incident light on the culture plates was 2.4 mW/cm^2 as measured with an International Light UV radiometer, Model IL 442A. […]
After completion of the irradiation phase, the cell culture medium was drained, the cells refed with fresh growth medium and then re-incubated in the carbon dioxide incubator to allow for cell growth. After 4-5 days of growth the culture plates were removed from the incubator and the cell culture medium was drained. The cells were detached from the plates with trypsin and counted in a Coulter Counter. For control cells or for cells treated with test compounds, cell growth was determined as a percentage of control. […] This value is shown in Table I for a variety of phototherapeutics.

Setting [1] is: with UVA (320-400 nm) 1.28 J/square centimeter after 30 minutes incubation, 4-5 days of growth, read-out: Photo-toxicity (IC50 values), concentration at which photoactivated test compound inhibited growth by 50%.
Setting [2] is: dark (no UVA light), read-out: Dark-toxicity (IC50 values).

On to `Cc1cc(=O)oc2c(C)c(O)c([N+](=O)[O-])cc12` [Example 1, 6-Nitro-4,8-dimethyl-7-hydroxycoumarin], for which the IC50 under setting [1] is more than 300 µM.

Regarding `C=CCOc1c([N+](=O)[O-])cc2c(C)cc(=O)oc2c1C` [Example 2, 6-Nitro-4,8-dimethyl-7-allyloxycoumarin], the IC50 is more than 100 µM under setting [2] and 5 µM under setting [1]. With `C=CCOc1c(N)cc2c(C)cc(=O)oc2c1C` [Example 3, 6-Amino-4.8-dimethyl-7-allyloxycoumarin], the IC50 reads like this: under setting [2], more than 100 µM; under setting [1], 240 µM. Consider `Cc1cc(=O)oc2c(C)c3c(cc12)C(CI)CO3` (stereo not shown) [Example 5, 4,8-Dimethyl-4'-iodomethyl-4',5'-dihydropsoralen], for which the IC50 under setting [2] was more than 100 µM and the IC50 under setting [1] is 0.1 µM.

`Cc1c(Br)c(=O)oc2c(C)c3c(cc12)C(CI)CO3` (stereo not shown) [Example 6, 3-Bromo-4,8-dimethyl-4'-iodomethyl-4',5'-dihydropsoralen]: the IC50 under setting [1] is 0.2 to 0.5 µM. As for `Cc1cc(=O)oc2c(C)c3c(cc12)C(C[n+]1ccccc1)CO3` (stereo not shown) [Example 9, 4,8-Dimethyl-4'-pyridiniummethyl-4',5'-dihydropsoralen Iodide Salt], the IC50 under setting [1] was 0.5 µM.

Regarding `Cc1c(Br)c(=O)oc2c(C)c3c(cc12)C(C[n+]1ccccc1)CO3` (stereo not shown) [Example 12, 3-Bromo-4,8-dimethyl-4'-pyridiniummethyl-4',5'-dihydropsoralen Iodide Salt], the IC50 by setting is: under setting [2], 70 µM; under setting [1], more than 30 µM.

`Cc1cc(=O)oc2c(C)c3c(cc12)C(CC#N)CO3` (stereo not shown) [Example 15, 4,8-Dimethyl-4'-cyanomethyl-4',5'-dihydropsoralen]: the IC50 runs as follows: under setting [2], more than 100 µM; under setting [1], 3 µM.
